Data published in ChEMBL document CHEMBL3885881, “DrugMatrix”.

Species on record: Rattus norvegicus
Test: DrugMatrix - Regimen: Daily Repeat
Assay type: toxicity, organism-based, Sprague-Dawley
Design: regimen Daily Repeat, gender Male, age 6-8 weeks
Conditions: in vivo, po, route oral GAVAGE, vehicle 100 % WATER; for ABSOLUTE BASOPHIL / ABSOLUTE EOSINOPHIL / ABSOLUTE LYMPHOCYTE / ABSOLUTE MONOCYTE / ABSOLUTE SEGMENTED NEUTROPHIL / BASOPHIL / EOSINOPHIL / ERYTHROCYTE COUNT / HEMATOCRIT / HEMOGLOBIN / LEUKOCYTE COUNT / LYMPHOCYTE / MEAN CORPUSCULAR HEMOGLOBIN / MEAN CORPUSCULAR HEMOGLOBIN CONCENTRATION / MEAN CORPUSCULAR VOLUME / MONOCYTE / NEUTROPHIL / NUCLEATED RED BLOOD CELLS / PLATELET COUNT: tissue Blood; for ALANINE AMINOTRANSFERASE / ALBUMIN / ALKALINE PHOSPHATASE / ASPARTATE AMINOTRANSFERASE / BLOOD UREA NITROGEN / CARBON DIOXIDE / CHLORIDE / CHOLESTEROL / CREATINE PHOSPHOKINASE / CREATININE / GLUCOSE / LACTATE DEHYDROGENASE / LIPASE / PHOSPHORUS / POTASSIUM / SODIUM / TOTAL BILIRUBIN / TOTAL PROTEIN / URIC ACID: tissue Plasma
[1] = 4 mg/kg, 72 h, dose level Low, time 3 day
[2] = 4 mg/kg, 120 h, dose level Low, time 5 day
[3] = 1100 mg/kg, 72 h, dose level High, time 3 day
[4] = 1100 mg/kg, 120 h, dose level High, time 5 day

COc1ccnc(C[S+]([O-])c2nc3ccc(OC(F)F)cc3[nH]2)c1OC (configuration not stated) [PANTOPRAZOLE]
ABSOLUTE BASOPHIL [1]: 0 CELLS/uL | ABSOLUTE EOSINOPHIL [1]: 0 CELLS/uL | ABSOLUTE LYMPHOCYTE [1]: 12700.33 CELLS/uL | ABSOLUTE MONOCYTE [1]: 129 CELLS/uL | ABSOLUTE SEGMENTED NEUTROPHIL [1]: 970.67 CELLS/uL | BASOPHIL [1]: 0% | EOSINOPHIL [1]: 0% | ERYTHROCYTE COUNT [1]: 5.41 x10E6/uL | HEMATOCRIT [1]: 34.33% | HEMOGLOBIN [1]: 13.7 G/DL | LEUKOCYTE COUNT [1]: 13.8 x10E3/uL | LYMPHOCYTE [1]: 91.33% | MEAN CORPUSCULAR HEMOGLOBIN [1]: 25.37 pg | MEAN CORPUSCULAR HEMOGLOBIN CONCENTRATION [1]: 39.93 G/DL | MEAN CORPUSCULAR VOLUME [1]: 63.43 fL | MONOCYTE [1]: 1% | NEUTROPHIL [1]: 7.67% | NUCLEATED RED BLOOD CELLS [1]: 0.67 /100WBC | PLATELET COUNT [1]: 1322.33 x10E3/uL | ALANINE AMINOTRANSFERASE [1]: 47 u/L | ALBUMIN [1]: 4.07 G/DL | ALKALINE PHOSPHATASE [1]: 370.67 u/L | ASPARTATE AMINOTRANSFERASE [1]: 94 u/L | BLOOD UREA NITROGEN [1]: 15.67 mg/dL | CARBON DIOXIDE [1]: 25.67 mmol/L | CHLORIDE [1]: 102.67 MEQ/L | CHOLESTEROL [1]: 70.33 mg/dL | CREATINE PHOSPHOKINASE [1]: 679.33 u/L | CREATININE [1]: 0.14 mg/dL | GLUCOSE [1]: 153.67 mg/dL | LACTATE DEHYDROGENASE [1]: 404.33 u/L | LIPASE [1]: 9 u/L | PHOSPHORUS [1]: 13.8 mg/dL | POTASSIUM [1]: 7.04 MEQ/L | SODIUM [1]: 146.43 MEQ/L | TOTAL BILIRUBIN [1]: 0.23 mg/dL | TOTAL PROTEIN [1]: 5.67 G/DL | URIC ACID [1]: 1.7 mg/dL | ABSOLUTE BASOPHIL [2]: 0 CELLS/uL | ABSOLUTE EOSINOPHIL [2]: 43.33 CELLS/uL | ABSOLUTE LYMPHOCYTE [2]: 13938.33 CELLS/uL | ABSOLUTE MONOCYTE [2]: 59 CELLS/uL | ABSOLUTE SEGMENTED NEUTROPHIL [2]: 859.33 CELLS/uL | BASOPHIL [2]: 0% | EOSINOPHIL [2]: 0.33% | ERYTHROCYTE COUNT [2]: 5.27 x10E6/uL | HEMATOCRIT [2]: 34.2% | HEMOGLOBIN [2]: 13.7 G/DL | LEUKOCYTE COUNT [2]: 14.9 x10E3/uL | LYMPHOCYTE [2]: 93.33% | MEAN CORPUSCULAR HEMOGLOBIN [2]: 26.07 pg | MEAN CORPUSCULAR HEMOGLOBIN CONCENTRATION [2]: 40.07 G/DL | MEAN CORPUSCULAR VOLUME [2]: 65.03 fL | MONOCYTE [2]: 0.33% | NEUTROPHIL [2]: 6% | NUCLEATED RED BLOOD CELLS [2]: 0.33 /100WBC | PLATELET COUNT [2]: 1411.33 x10E3/uL | ALANINE AMINOTRANSFERASE [2]: 54.67 u/L | ALBUMIN [2]: 4.17 G/DL | ALKALINE PHOSPHATASE [2]: 396 u/L | ASPARTATE AMINOTRANSFERASE [2]: 114.33 u/L | BLOOD UREA NITROGEN [2]: 17.67 mg/dL | CARBON DIOXIDE [2]: 26 mmol/L | CHLORIDE [2]: 102 MEQ/L | CHOLESTEROL [2]: 60.67 mg/dL | CREATINE PHOSPHOKINASE [2]: 690.67 u/L | CREATININE [2]: 0.13 mg/dL | GLUCOSE [2]: 144 mg/dL | LACTATE DEHYDROGENASE [2]: 666.67 u/L | LIPASE [2]: 9 u/L | PHOSPHORUS [2]: 14.27 mg/dL | POTASSIUM [2]: 6.77 MEQ/L | SODIUM [2]: 143.77 MEQ/L | TOTAL BILIRUBIN [2]: 0.2 mg/dL | TOTAL PROTEIN [2]: 5.8 G/DL | URIC ACID [2]: 1.57 mg/dL | ABSOLUTE BASOPHIL [3]: 0 CELLS/uL | ABSOLUTE EOSINOPHIL [3]: 0 CELLS/uL | ABSOLUTE LYMPHOCYTE [3]: 16363.67 CELLS/uL | ABSOLUTE MONOCYTE [3]: 197 CELLS/uL | ABSOLUTE SEGMENTED NEUTROPHIL [3]: 1639.33 CELLS/uL | BASOPHIL [3]: 0% | EOSINOPHIL [3]: 0% | ERYTHROCYTE COUNT [3]: 5.69 x10E6/uL | HEMATOCRIT [3]: 35.37% | HEMOGLOBIN [3]: 14 G/DL | LEUKOCYTE COUNT [3]: 18.2 x10E3/uL | LYMPHOCYTE [3]: 90.33% | MEAN CORPUSCULAR HEMOGLOBIN [3]: 24.67 pg | MEAN CORPUSCULAR HEMOGLOBIN CONCENTRATION [3]: 39.57 G/DL | MEAN CORPUSCULAR VOLUME [3]: 62.3 fL | MONOCYTE [3]: 1% | NEUTROPHIL [3]: 8.67% | NUCLEATED RED BLOOD CELLS [3]: 0.33 /100WBC | PLATELET COUNT [3]: 1283.67 x10E3/uL | ALANINE AMINOTRANSFERASE [3]: 51.67 u/L | ALBUMIN [3]: 4.03 G/DL | ALKALINE PHOSPHATASE [3]: 372.67 u/L | ASPARTATE AMINOTRANSFERASE [3]: 89 u/L | BLOOD UREA NITROGEN [3]: 17 mg/dL | CARBON DIOXIDE [3]: 29 mmol/L | CHLORIDE [3]: 98.67 MEQ/L | CHOLESTEROL [3]: 105.67 mg/dL | CREATINE PHOSPHOKINASE [3]: 255 u/L | CREATININE [3]: 0.16 mg/dL | GLUCOSE [3]: 134.33 mg/dL | LACTATE DEHYDROGENASE [3]: 182.67 u/L | LIPASE [3]: 11 u/L | PHOSPHORUS [3]: 12.2 mg/dL | POTASSIUM [3]: 7.39 MEQ/L | SODIUM [3]: 142.4 MEQ/L | TOTAL BILIRUBIN [3]: 0.23 mg/dL | TOTAL PROTEIN [3]: 5.67 G/DL | URIC ACID [3]: 1.67 mg/dL | ABSOLUTE BASOPHIL [4]: 0 CELLS/uL | ABSOLUTE EOSINOPHIL [4]: 57.33 CELLS/uL | ABSOLUTE LYMPHOCYTE [4]: 9481.67 CELLS/uL | ABSOLUTE MONOCYTE [4]: 24 CELLS/uL | ABSOLUTE SEGMENTED NEUTROPHIL [4]: 670.33 CELLS/uL | BASOPHIL [4]: 0% | EOSINOPHIL [4]: 0.33% | ERYTHROCYTE COUNT [4]: 5.57 x10E6/uL | HEMATOCRIT [4]: 33.33% | HEMOGLOBIN [4]: 13.7 G/DL | LEUKOCYTE COUNT [4]: 10.23 x10E3/uL | LYMPHOCYTE [4]: 91.67% | MEAN CORPUSCULAR HEMOGLOBIN [4]: 24.57 pg | MEAN CORPUSCULAR HEMOGLOBIN CONCENTRATION [4]: 41.13 G/DL | MEAN CORPUSCULAR VOLUME [4]: 59.83 fL | MONOCYTE [4]: 0.33% | NEUTROPHIL [4]: 7.67% | NUCLEATED RED BLOOD CELLS [4]: 0 /100WBC | PLATELET COUNT [4]: 1302.33 x10E3/uL | ALANINE AMINOTRANSFERASE [4]: 40.33 u/L | ALBUMIN [4]: 4.33 G/DL | ALKALINE PHOSPHATASE [4]: 318 u/L | ASPARTATE AMINOTRANSFERASE [4]: 84 u/L | BLOOD UREA NITROGEN [4]: 14.67 mg/dL | CARBON DIOXIDE [4]: 27 mmol/L | CHLORIDE [4]: 102.5 MEQ/L | CHOLESTEROL [4]: 129.33 mg/dL | CREATINE PHOSPHOKINASE [4]: 241.33 u/L | CREATININE [4]: 0.19 mg/dL | GLUCOSE [4]: 122.33 mg/dL | LACTATE DEHYDROGENASE [4]: 148 u/L | LIPASE [4]: 11.67 u/L | PHOSPHORUS [4]: 9.87 mg/dL | POTASSIUM [4]: 5.71 MEQ/L | SODIUM [4]: 145.65 MEQ/L | TOTAL BILIRUBIN [4]: 0.27 mg/dL | TOTAL PROTEIN [4]: 6.13 G/DL | URIC ACID [4]: 0.47 mg/dL
